Converted amounts (≈) assume the structure as drawn. Read-outs that look alike come from different tables or passages of the source.
Columns and labels:
S. aureus = assay: Evolution of resistance in S. aureus over 32 days; type: cell-based; conditions: for MIC: Staphylococcus aureus
Description: Over a period of 32 days, S. aureus cells were exposed to sub-inhibitory concentrations of the indicated compound, norfloxacin, or oxacillin and sub-cultured at the newly emerged, sub-inhibitory concentration.

MRSA ATCC BAA-44 = assay: MIC on MRSA ATCC BAA-44; type: cell-based, S. aureus; conditions: for MIC: Staphylococcus aureus
Experimental: MRSA BAA-44: MRSA ATCC BAA-44 was grown from a glycerol stock by placing a small volume of cells onto a Mueller-Hinton agar plate (MHA). The MHA plate was incubated overnight at 37° C. A single colony was used to inoculate Mueller-Hinton broth (MHB) to obtain a bacterial broth suspension. The MHB broth suspension was grown at 37° C. on a rotary shaking incubator (100 rpm) for 12 hours. The bacterial cell concentration was adjusted to ˜5×10^5 colony forming units per milliliter (CFU/mL) in MHB−/+10, 20, or 40% FBS using optical density (OD) at 595 nm. 500 μL aliquots of the adjusted bacterial cell suspension were placed into borosilicate glass tubes. The cell suspensions were treated with 100 μM compound of interest and serially diluted two-fold. The culture tubes were incubated for 18 hours at 37° C. Efficacy was either assessed visually or by adding 10% v/v MTT (5 mg/mL stock) after the 18 hour incubation period, where the cell suspensions were subsequently incubated for 10 minutes to allow the MTT reagent to carry out the colorimetric reaction.

[1] = system: A. baumannii ATCC BAA-1797; assay: MIC on A. baumannii ATCC BAA-1797; type: cell-based
Experimental: A. baumannii: A. baumannii ATCC BAA-1797 was grown from a glycerol stock by placing a small volume of cells onto a MHA plate. The MHA plate was incubated overnight at 37° C. A single colony was used to inoculate MHB to obtain a bacterial broth suspension. The MHB broth suspension was grown at 37° C. on a rotary shaking incubator (100 rpm) for 12 hours. The bacterial cell concentration was adjusted to ˜5×10^5 CFU/mL in MHB or MHB+10%, 20% or 40% FBS using OD at 595 nm. 500 μL aliquots of the adjusted bacterial cell suspension were placed into borosilicate glass tubes. The cell suspensions were treated with a compound of interest, and the treatments were serially diluted two-fold. The culture tubes were incubated for 18 hours at 37° C. Efficacy was either assessed visually or by adding 10% v/v MTT (5 mg/mL stock) after the 18 hour incubation period. The cell suspensions were subsequently incubated for 10 minutes to allow the MTT reagent to carry out the colorimetric reaction. The OD was read at 595 nm.

[2] = in FBS (note in the cell, percentage not given), read-out: MIC (μM) in MRSA BAA-44
[3] = 0% FBS, read-out: MIC (μM) in MDR A. baumannii ATCC 1797 0% FBS
[4] = no serum (note in the cell), read-out: MIC (μM) in MRSA BAA-44
[5] = Acinetobacter baumannii, ATCC 1797 / ATCC BAA-1797, 0% FBS, read-out: MIC (μM) in MDR A. baumannii ATCC 1797 0% FBS
[6] = Acinetobacter baumannii, ATCC 1797 / ATCC BAA-1797, read-out: MIC (μM) in MDR A. baumannii ATCC 1797 40% FBS, 40% FBS
[7] = 10% FBS, read-out: MIC (μM) in MRSA BAA-44 10% FBS
[8] = Acinetobacter baumannii, ATCC 1797 / ATCC BAA-1797, 10% FBS, read-out: MIC (μM) in MDR A. baumannii ATCC 1797 10% FBS
[9] = in 40% FBS (note in the cell), read-out: MIC (μM) in MRSA BAA-44

CCn1cc(C(=O)O)c(=O)c2cc(F)c(N3CCNCC3)cc21 [Norfloxacin, reference compound]
development of resistance (increase in MIC) (S. aureus; 32 days of sub-inhibitory exposure): Dramatic resistance | MIC (S. aureus; 0 h, read-out: Initial MIC Day 0): 2 µg/mL (≈ 6.26 µM) | MIC (S. aureus; read-out: Final MIC Day 32): > 100 µg/mL

Cl.NCCCC(=O)Oc1cccc2[nH]cc(/C=N/Nc3ccc(F)cc3)c12 [Compound 42, (E)-4-((3-((2-(4-fluorophenyl)hydrazineylidene)methyl)-1H-indol-4-yl)oxy)-4-oxobutan-1-aminium chloride]
MIC (MRSA ATCC BAA-44; [2]): 100 µM | MIC (μM) in MRSA BAA-44 (MRSA ATCC BAA-44; no serum (note in the cell)): <25 in no μM | MIC [1, 3]: <25 µM | MIC (μM) in MDR A. baumannii ATCC 1797 40% FBS ([1]; 40% FBS): >100 µM

C(=N\Nc1ncccn1)/c1c[nH]c2cccc(OCc3ccccc3)c12 [Compound 36, (E)-4-(benzyloxy)-3-((2-(pyrimidin-2-yl)hydrazineylidene)methyl)-1H-indole]
MIC (MRSA ATCC BAA-44; [4]): > 100 µM | MIC [1, 5]: > 100 µM | MIC [1, 6]: > 100 µM

FC(F)(F)c1ccc(N/N=C/c2c[nH]c3cccc(OCc4ccccc4)c23)cc1 [Compound 37, (E)-4-(benzyloxy)-3-((2-(4-(trifluoromethyl)phenyl) hydrazineylidene)methyl)-1H-indole]
MIC (MRSA ATCC BAA-44; [4]): 12.5 µM (≈ 5.12 µg/mL) | MIC [1, 5]: > 100 µM | MIC [1, 6]: > 100 µM

CCCCCC(=O)Oc1cccc2[nH]cc(/C=N/Nc3ccc(Br)cc3)c12 [Compound 22, (E)-3-((2-(4-bromophenyl)hydrazineylidene)methyl)-1H-indol-4-yl hexanoate]
MIC (MRSA ATCC BAA-44; [2]): > 100 µM | MIC (MRSA ATCC BAA-44; [4]): 25 µM (≈ 10.7 µg/mL) | MIC [1, 5]: 25 µM (≈ 10.7 µg/mL) | MIC [1, 6]: > 100 µM

Brc1ccc(N/N=C/c2c[nH]c3cccc(OCc4ccccc4)c23)cc1 [Compound 34, (E)-4-(benzyloxy)-3-((2-(4-bromophenyl)hydrazineylidene)methyl)-1H-indole]
MIC (μM) in MRSA BAA-44 (MRSA ATCC BAA-44; no serum (note in the cell)): 25 (no serum) μM | MIC [1, 3]: 3 µM (≈ 1.26 µg/mL) | MIC (μM) in MDR A. baumannii ATCC 1797 40% FBS ([1]; 40% FBS): 50 µM (≈ 21 µg/mL)

CC(C)(C)OC(=O)N[C@@H](CCCNC(=N)N)C(=O)Oc1cccc2[nH]cc(/C=N/Nc3ccc(Cl)cc3)c12 [Compound 17, (E)-3-((2-(4-chlorophenyl)hydrazineylidene)methyl)-1H-indol-4-yl (tert-butoxycarbonyl) argininate]
MIC (MRSA ATCC BAA-44; [7]): > 100 µM | MIC [1, 5]: > 100 µM | MIC [1, 8]: > 100 µM | MIC [1, 6]: > 100 µM

C(=N\NC1=NCCCN1)/c1c[nH]c2cccc(OCc3ccccc3)c12 [Compound 35, (E)-2-(2-((4-(benzyloxy)-1H-indol-3-yl)methylene)hydrazineyl)-3,4,5,6-tetrahydropyrimidin-1-ium 2,2,2-trifluoroacetate]
MIC (MRSA ATCC BAA-44; [4]): 50 µM (≈ 17.4 µg/mL) | MIC [1, 5]: > 100 µM | MIC [1, 6]: > 100 µM

Cn1cc(/N=N/c2ccc(Br)cc2)c2c([N+](C)(C)C)cccc21 [Compound 2, (E)-3-((4-bromophenyl)diazenyl)-N,N,N,1-tetramethyl-1H-indol-4-aminium iodide]
MIC (MRSA ATCC BAA-44; [7]): > 100 µM | MIC [1, 5]: > 100 µM

NCCCC(=O)Oc1cccc2[nH]cc(/C=N/Nc3ccc(F)cc3)c12 [Compound 41, (E)-3-((2-(4-fluorophenyl)hydrazineylidene)methyl)-1H-indol-4-yl 4-aminobutanoate]
MIC (μM) in MRSA BAA-44 (MRSA ATCC BAA-44; no serum (note in the cell)): 100 no serum μM | MIC [1, 5]: 12.5 µM (≈ 4.43 µg/mL) | MIC [1, 6]: > 100 µM

Cn1cc(/C=N/Nc2ccc(Br)cc2)c2c(OCc3ccccc3)cccc21 [Compound 45, (E)-4-(benzyloxy)-3-((2-(4-bromophenyl)hydrazineylidene)methyl)-1-methyl-1H-indole]
MIC (MRSA ATCC BAA-44; [9]): > 100 µM | MIC (MRSA ATCC BAA-44; [4]): 25 µM (≈ 10.9 µg/mL) | MIC [1, 5]: 25 µM (≈ 10.9 µg/mL) | MIC [1, 6]: 50 µM (≈ 21.7 µg/mL)

N=C(N)NCCC(N)C(=O)Nc1cccc2[nH]cc(/N=N/c3ccc(Br)cc3)c12 (stereo not drawn) [Compound 6, (E)-2-amino-N-(3-((4-bromophenyl)diazenyl)-1H-indol-4-yl)-4-guanidinobutanamide]
MIC (MRSA ATCC BAA-44; [7]): 25 µM (≈ 11.4 µg/mL) | MIC [1, 5]: 25 µM (≈ 11.4 µg/mL) | MIC [1, 8]: > 100 µM | MIC [1, 6]: 100 µM (≈ 45.7 µg/mL)

CC(=O)O.Nc1ccc(N/N=C/c2c[nH]c3cccc(OCc4ccccc4)c23)cc1 [Compound 39, (E)-1-(4-aminophenyl)-2-((4-(benzyloxy)-1H-indol-3-yl)methylene)hydrazin-1-ium acetate]
MIC (μM) in MRSA BAA-44 (MRSA ATCC BAA-44; no serum (note in the cell)): 50 (no serum) μM | MIC [1, 3]: >100 µM | MIC (μM) in MDR A. baumannii ATCC 1797 40% FBS ([1]; 40% FBS): >100 µM

Oc1cccc2[nH]cc(/C=N/Nc3ccccc3)c12 [Compound 13, (E)-3-((2-phenylhydrazineylidene)methyl)-1H-indol-4-ol]
MIC (MRSA ATCC BAA-44; [7]): 100 µM (≈ 25.1 µg/mL) | MIC [1, 5]: 5 µM (≈ 1.26 µg/mL) | MIC [1, 8]: 100 µM (≈ 25.1 µg/mL) | MIC [1, 6]: > 100 µM

Cn1cc(/C=N/Nc2ccc(F)cc2)c2c(OCc3ccccc3)cccc21 [Compound 44, (E)-4-(benzyloxy)-3-((2-(4-fluorophenyl)hydrazineylidene)methyl)-1-methyl-1H-indole]
MIC (MRSA ATCC BAA-44; [7]): < 100 µM | MIC [1, 5]: < 100 µM

Clc1ccccc1N/N=C/c1c[nH]c2ccccc12 [Compound 12, (E)-3-((2-(2-chlorophenyl)hydrazineylidene)methyl)-1H-indole]
MIC (MRSA ATCC BAA-44; [4]): 25 µM (≈ 6.74 µg/mL) | MIC [1, 5]: 12.5 µM (≈ 3.37 µg/mL) | MIC [1, 8]: > 100 µM | MIC [1, 6]: > 100 µM

COc1ccc(N/N=C/c2c[nH]c3cccc(OCc4ccccc4)c23)cc1 [Compound 30, (E)-4-(benzyloxy)-3-((2-(4-methoxyphenyl) hydrazineylidene)methyl)-1H-indole]
MIC (MRSA ATCC BAA-44; [7]): > 100 µM | MIC [1, 5]: > 100 µM | MIC [1, 8]: > 100 µM | MIC [1, 6]: > 100 µM | MIC ([1]; Acinetobacter baumannii, ATCCBAA1797, 18 h, read-out: MIC in the presence of 40% FBS, A. baumannii ATCC BAA-1797, 40% FBS): 100 µM | MIC ([1]; Acinetobacter baumannii, ATCCBAA1797, A. baumannii ATCC BAA-1797, absence of serum, read-out: MIC in the absence of serum): 20 µM (≈ 7.43 µg/mL)

Nc1ccc(N/N=C/c2c[nH]c3cccc(OCc4ccccc4)c23)cc1 [Compound 38, (E)-4-(2-((4-(benzyloxy)-1H-indol-3-yl)methylene)hydrazineyl) benzenaminium chloride]
MIC (MRSA ATCC BAA-44; [4]): > 100 µM | MIC [1, 5]: > 100 µM | MIC [1, 6]: > 100 µM

C(=N\Nc1ncccn1)/c1c[nH]c2ccccc12 [Compound 19, (E)-3-((2-(pyrimidin-2-yl)hydrazineylidene)methyl)-1H-indole]
MIC (MRSA ATCC BAA-44; [7]): > 100 µM | MIC [1, 5]: > 100 µM | MIC [1, 6]: > 100 µM

C(=N\Nc1ccccc1)/c1c[nH]c2ccccc12 [Compound 8, (E)-3-((2-phenylhydrazineylidene)methyl)-1H-indole]
MIC (MRSA ATCC BAA-44; [7]): > 100 µM | MIC [1, 5]: 40 µM (≈ 9.41 µg/mL) | MIC [1, 8]: > 100 µM | MIC [1, 6]: 50 µM (≈ 11.8 µg/mL)

Oc1cccc2[nH]cc(/C=N/Nc3ccc(Br)cc3)c12 [Compound 20, (E)-3-((2-(4-bromophenyl)hydrazineylidene)methyl)-1H-indol-4-ol]
MIC (MRSA ATCC BAA-44; [2]): > 100 µM | MIC (MRSA ATCC BAA-44; [4]): 25 µM (≈ 8.25 µg/mL) | MIC [1, 5]: 25 µM (≈ 8.25 µg/mL) | MIC [1, 6]: > 100 µM

Brc1ccc2c(N/N=C/c3c[nH]c4cccc(OCc5ccccc5)c34)ccnc2c1 [Compound 43, (E)-4-(2-((4-(benzyloxy)-1H-indol-3-yl)methylene)hydrazineyl)-7-bromoquinoline]
MIC (MRSA ATCC BAA-44; 18 h, read-out: MIC in the presence of 40% FBS, MRSA ATCC BAA-44, 40% FBS): > 100 µM | MIC (MRSA ATCC BAA-44; MRSA ATCC BAA-44, absence of serum, read-out: MIC in the absence of serum): 6 µM (≈ 2.83 µg/mL) | MIC (MRSA ATCC BAA-44; [9]): > 100 µM | MIC (MRSA ATCC BAA-44; [4]): 6 µM (≈ 2.83 µg/mL) | MIC [1, 5]: 6 µM (≈ 2.83 µg/mL) | MIC [1, 6]: > 100 µM

Nc1cccc2c(S(=O)(=O)N/N=C/c3c[nH]c4cccc(OCc5ccccc5)c34)cccc12 [Compound 33, (E)-5-amino-N′-((4-(benzyloxy)-1H-indol-3-yl)methylene)naphthalene-1-sulfonohydrazide]
MIC (MRSA ATCC BAA-44; [4]): > 100 µM | MIC [1, 5]: > 100 µM | MIC [1, 6]: > 100 µM

Fc1ccc(N/N=C/c2c[nH]c3cccc(OCc4ccccc4)c23)cc1 [Compound 31, (E)-4-(benzyloxy)-3-((2-(4-fluorophenyl)hydrazineylidene)methyl)-1H-indole]
MIC (MRSA ATCC BAA-44; [7]): ~100 µM (≈ 35.9 µg/mL) | MIC [1, 3]: 12.5 µM (≈ 4.49 µg/mL)
